Laboratory results as given in patent US8884013B2, “Polymorphs of Dasatinib, preparation methods and pharmaceutical compositions thereof” (Nan Jing Cavendish Bio-Engineering Technology Co., Ltd., priority 2010, dated 2014).
“Also recorded” adds a separate entry of the source.

How the values were obtained:
[1] = Photostability test (4500 ± 500 Lx); format: physicochemical; details: for Appearance / Content / Related substance: 4500 ± 500lx
Excerpt: (§1) The conditions and methods of related substance test involved in this invention was in accordance with HPLC (Appendix VD of Chinese Pharmacopoeia, Vol. II, (2005)).
(§2) Chromatographic conditions and system applicability:
(§3) octadecylsilane bonded silica as the filler; 0.05 mol/L of potassium dihydrogen phosphate (adjusted to pH 2.5 by phosphoric acid)-methanol (45:55) as the mobile phase; detection wavelength was 230 nm; the number of theoretical plates should be not less than 2000, calculated according to the peak area of Dasatinib. The resolution of the peak of Dasatinib from the peaks of adjacent impurities should meet requirements.
(§4) Test Method: the sample was weight and dissolved into mobile phase to be the solution containing 0.5 mg per mL, and 20 μL of this solution was taken and injected into liquid chromatography. Chromatogram was recorded until it is 6 times as the retention time of the main peak.
The Polymorph I of Dasatinib monohydrate was distributed homogeneously in open petri dish with the thickness of the raw material not more than 5 mm, and the distance was adjusted to make illumination intensity at 4500±500 Lx. Sample was tested at the 5th and 10th day respectively and the results were contrasted with that of the Day 0. Results were listed in Tab. 2.
The Polymorph II of Dasatinib was distributed homogeneously in open petri dish with the thickness of the raw material not more than 5 mm, and the distance was adjusted to make illumination intensity at 4500±500 Lx. Sample was tested at the 5th and 10th day respectively and the results were contrasted with that of the Day 0. Results were listed in Tab. 7.

[2] = High temperature test (60° C.); format: physicochemical; details: for Change of appearance in high temperature test (in words) / Change of content in high temperature test (in words): summary of 10-day test
Excerpt: as §1, §2, §3, §4
2.2 High Temperature Test
The raw material of Polymorph I of Dasatinib monohydrate was put into a clean sealed glass bottle and then put in thermostatic drying chamber at 60° C. Sample was tested at the 5th and 10th day respectively and the results were contrasted with that of the Day 0. Results were listed in Tab. 3.
The raw material of Polymorph II of Dasatinib was put into a clean sealed glass bottle and then put in thermostatic drying chamber at 60° C. Sample was tested at the 5th and 10th day respectively and the results were contrasted with that of the Day 0. Results were listed in Tab. 8.

[3] = High humidity test (room temperature, 75 ± 5% relative humidity); format: physicochemical; details: for Hydroscopic property: high humidity test; for Appearance / Content / Weight gain of moisture absorption: room temperature, 75 ± 5% relative humidity; for Change of appearance in high humidity test (in words) / Change of content in high humidity test (in words): summary of 10-day test
Method: The raw material of Polymorph I of Dasatinib monohydrate was distributed homogeneously in open petri dish with thickness of the raw material not more than 5 mm and put into thermostatic and humidostatic incubator at room temperature (about 25° C.) and 75±5% relative humidity. Sample was tested at the 5th and 10th day respectively and the results were contrasted with that of the Day 0. Results were listed in Tab. 4.
The raw material of Polymorph II of Dasatinib was distributed homogeneously in open petri dish with thickness of the raw material not more than 5 mm and put into thermostatic and humidostatic incubator at room temperature (about 25° C.) and 75±5% relative humidity. Sample was tested at the 5th and 10th day respectively and the results were contrasted with that of the Day 0. Results were listed in Tab. 9.

[4] = Accelerated test (40° C. and 75% relative humidity); format: physicochemical; details: for Appearance / Content / Related substances: 40° C., 75% relative humidity; for Physical and chemical characteristic in accelerated test (in words): summary of six-month test
Excerpt: as §1, §2, §3, §4
The raw material of Polymorph I of Dasatinib was hermetically packed in plastic bags of polyethylene film and put in thermostatic and humidostatic incubator at 40±2° C. and 75±5% relative humidity for six months. Sample was tested at the end of the 1st, 2nd, 3rd and 6th month respectively and the results were contrasted with that of the zeroth month. Results were listed in Tab. 5.
The raw material of Polymorph II of Dasatinib was hermetically packed in plastic bags of polyethylene film and put in thermostatic and humidostatic incubator at 40±2° C. and 75±5% relative humidity for six months. Sample was tested at the end of the 1st, 2nd, 3rd and 6th month respectively and the results were contrasted with that of the zeroth month. Results were listed in Tab. 10.

[5] = Stability of polymorph in the formulations (XRPD and relative substances after formulation); format: physicochemical; details: for Change of relative substances of bulk drug in the formulation (in words): after formulation into capsules or tablets; for Change of crystalline form after being formulated: capsules or tablets, XRPD
Excerpt: Stability of Polymorph in the Formulations
The XRPD patterns of capsules and tablets respectively prepared in the Example 3 and Example 4 have been tested, and compared with XRPD characteristic peaks of Polymorph I of Dasatinib prepared by the Method A in the Example 1 in the present invention, as listed in the following table:
In addition, The relative substances of capsules and tablets respectively prepared in the Example 3 and Example 4 have been tested, and compared with those of Polymorph I of Dasatinib prepared by the Method A in the Example 1 in the present invention, as listed in the following table: […]

[6] = Stability in water compared with polymorph A of CN200580011916.6

Cc1nc(Nc2ncc(C(=O)Nc3c(C)cccc3Cl)s2)cc(N2CCN(CCO)CC2)n1 [Polymorph I, N-(2-chloro-6-methylphenyl)-2-[[6-[4-(2-hydroxyethyl)-1-piperazinyl]-2-methyl-4-pyrimidyl]amino]-5-thiazolformamide]
Appearance ([1]; day 0): white powder | Content ([1]; day 0): 99.7% | Related substance ([1]; day 0): 0.07% | Appearance ([1]; day 5): white powder | Content ([1]; day 5): 99.6% | Related substance ([1]; day 5): 0.21% | Appearance ([1]; day 10): white powder | Content ([1]; day 10): 99.4% | Related substance ([1]; day 10): 0.34% | Change of content in photostability test (in words) ([1]; summary of 10-day test): of some drop | Change of related substances in photostability test (in words) ([1]; summary of 10-day test): increased slightly | Appearance ([2]; day 0): white powder | Content ([2]; day 0): 99.8% | Related substance ([2]; day 0): 0.06% | Appearance ([2]; day 5): white powder | Content ([2]; day 5): 99.7% | Related substance ([2]; day 5): 0.09% | Appearance ([2]; day 10): white powder | Content ([2]; day 10): 99.5% | Related substance ([2]; day 10): 0.12% | Change of appearance in high temperature test (in words) [2]: few obvious change | Change of content in high temperature test (in words) [2]: went down marginally | Hydroscopic property [3]: lower | Appearance ([3]; day 0): white powder | Content ([3]; day 0): 99.7% | Weight gain of moisture absorption ([3]; day 0): 3.57% | Appearance ([3]; day 5): white powder | Content ([3]; day 5): 99.6% | Weight gain of moisture absorption ([3]; day 5): 3.73% | Appearance ([3]; day 10): white powder | Content ([3]; day 10): 99.7% | Weight gain of moisture absorption ([3]; day 10): 3.76% | Change of appearance in high humidity test (in words) [3]: no obvious change | Change of content in high humidity test (in words) [3]: no obvious change | Appearance ([4]; month 0): white powder | Content ([4]; month 0): 99.7% | Related substances ([4]; month 0): 0.07% | Appearance ([4]; month 1): white powder | Content ([4]; month 1): 99.6% | Related substances ([4]; month 1): 0.07% | Appearance ([4]; month 2): white powder | Content ([4]; month 2): 99.6% | Related substances ([4]; month 2): 0.08% | Appearance ([4]; month 3): white powder | Content ([4]; month 3): 99.6% | Related substances ([4]; month 3): 0.08% | Appearance ([4]; month 6): white powder | Content ([4]; month 6): 99.5% | Related substances ([4]; month 6): 0.09% | Physical and chemical characteristic in accelerated test (in words) [4]: relatively stable | Change of relative substances of bulk drug in the formulation (in words) [5]: didn't increase; also recorded: no significantly changes | Relative substances ([5]; bulk drug vs capsules and tablets of Examples 3 and 4): 0.07% | Change of crystalline form after being formulated [5]: no substantially change; also recorded: substantially no change | Stability in water by comparison to polymorph A of CN200580011916.6 [6]: better stability in water

Cc1nc(Nc2ncc(C(=O)Nc3c(C)cccc3Cl)s2)cc(N2CCN(CCO)CC2)n1 [Polymorph II, N-(2-chloro-6-methylphenyl)-2-[[6-[4-(2-hydroxyethyl)-1-piperazinyl]-2-methyl-4-pyrimidyl]amino]-5-thiazolformamide]
Content ([1]; day 0): 99.8% | Related substance ([1]; day 0): 0.06% | Content ([1]; day 5): 99.6% | Related substance ([1]; day 5): 0.22% | Content ([1]; day 10): 99.3% | Related substance ([1]; day 10): 0.36% | Change of appearance in photostability test (in words) ([1]; summary of 10-day test): no obvious change | Change of content in photostability test (in words) ([1]; summary of 10-day test): of some drop | Change of related substances in photostability test (in words) ([1]; summary of 10-day test): increased slightly | Content ([2]; day 0): 99.8% | Related substance ([2]; day 0): 0.06% | Content ([2]; day 5): 99.7% | Related substance ([2]; day 5): 0.11% | Content ([2]; day 10): 99.4% | Related substance ([2]; day 10): 0.16% | Change of appearance in high temperature test (in words) [2]: few obvious change | Change of content in high temperature test (in words) [2]: few obvious change | Hydroscopic property [3]: lower | Appearance ([3]; day 0): white powder | Content ([3]; day 0): 99.8% | Weight gain of moisture absorption ([3]; day 0): 0.57% | Appearance ([3]; day 5): white powder | Content ([3]; day 5): 99.7% | Weight gain of moisture absorption ([3]; day 5): 3.63% | Appearance ([3]; day 10): white powder | Content ([3]; day 10): 99.8% | Weight gain of moisture absorption ([3]; day 10): 3.72% | Change of appearance in high humidity test (in words) [3]: no obvious change | Change of content in high humidity test (in words) [3]: no obvious change | Appearance ([4]; month 0): white powder | Content ([4]; month 0): 99.8% | Related substances ([4]; month 0): 0.06% | Appearance ([4]; month 1): white powder | Content ([4]; month 1): 99.7% | Related substances ([4]; month 1): 0.07% | Appearance ([4]; month 2): white powder | Content ([4]; month 2): 99.8% | Related substances ([4]; month 2): 0.08% | Appearance ([4]; month 3): white powder | Content ([4]; month 3): 99.6% | Related substances ([4]; month 3): 0.07% | Appearance ([4]; month 6): white powder | Content ([4]; month 6): 99.6% | Related substances ([4]; month 6): 0.08% | Physical and chemical characteristic in accelerated test (in words) [4]: of relative stability | Change of relative substances of bulk drug in the formulation (in words) [5]: didn't increase | Change of crystalline form after being formulated [5]: no substantially change | Stability in water by comparison to polymorph A of CN200580011916.6 [6]: better stability in water
